Earlier results in patent publication US20090078254A1, “Anesthetic Agent Recovery” (priority 2004, published 2009).
Like-named read-outs stand apart in the source and are kept apart here.

Key:
[1] = system: population moving in response to pain; conditions: for MAC (Minimum Alveolar Concentration of gas that prevents 50% of population from moving in response to pain): adding 50% MAC N2O drops MAC value of agent by 50%
[2] = in vitro and in vivo studies
[3] = not given; remark: listed apart in the source
[4] = not given; remark: listed apart in the source
[5] = produces inorganic fluoride

Row | Compound | MAC (Minimum Alveolar Concentration of gas that prevents 50% of population from moving in response to pain) [1] | Potency relative to ISOFLURANE ([1]; fraction of isoflurane potency) | Compound stability [2] | SVP@18° C. [mm Hg] | SVP@20° C. [mm Hg] | SVP@22° C. [mm Hg] | SVP@24° C. [mm Hg] | SVP@26° C. [mm Hg] | saturated vapor pressure (room temperature) [atm.] | Stability In Moist Soda Lime ([3]; 40° C.) | Stability In Moist Soda Lime ([3]; 60° C.) | Stability In Moist Soda Lime ([3]; 80° C.) | Liver damage ([4]; byproducts of reductive metabolism) | Malignant hyperthermia ([4]; in vivo) | Stability in the presence of standard CO2 absorbents ([3]; soda lime, baralime) | metabolism [5] [%]
1 | FC(F)OC(F)C(F)(F)F (stereo not drawn) [DESFLURANE] | 5-8% | about ⅕ | extremely stable | 653 | 700 | 750 | 804 | 860 | ~1.0 | Stable | Stable | Sl. Unstable | – | – | – | –
2 | FC(F)(F)C(Cl)Br (stereo not drawn) [HALOTHANE] | – | – | – | – | – | – | – | – | – | – | – | – | can cause liver damage | potential to cause malignant hyperthermia | – | –
3 | FC(F)OC(Cl)C(F)(F)F (stereo not drawn) [ISOFLURANE] | 1-1.6% | – | – | 219 | 240 | 262 | 286 | 312 | – | Stable | Stable | Stable | – | – | – | –
4 | FCOC(C(F)(F)F)C(F)(F)F [SEVOFLURANE] | 1.5-2.5% | – | – | – | 157 | – | – | – | – | Unstable | Unstable | Unstable | – | – | unstable | 5
